Consider three molecules from patent publication EP2808337A1, “(E)-3-Aryl-3-oxoprop-1-enyl-2-phosphonic acid and its derivatives, methods for their preparation and their use” (Centrum Badan Molekularnych I Makromolekularnych Pan, priority 2013, dated 2014).

Each structure is given as a SMILES string.

For assay [1], the system named is DNA plasmid pcDNA 3.1 HisC (8.2 kb). The assay can be described thus: Digestion of plasmid DNA with restriction enzyme Bam H1 after incubation with compounds (agarose gel electrophoresis). It counts as biochemical. Particulars: compound 2 or 20 µM, overnight at 37°C with 0.6 µg plasmid, then BamH1 2U/sample for 3 hours at 37°C; gel not shown. Here is the method:
The impact of compounds 1a and 1b has been tested on the digestion of DNA plasmid pcDNA 3.1 HisC (8.2 kb) with restriction enzyme Bam H1.
1. For this purpose, pcDNA 3.1 HisC plasmid DNA (0.6 µg) was dissolved in 1×BamH1 buffer and incubated overnight at 37°C with the following reference or test compounds:
The concentration of the reference and test compounds in each sample was 2 or 20 µM.
2. After overnight incubation, the reaction mixture was digested with BamH1 restriction enzyme (2U/sample) for 3 hours at 37°C. The total volume of the samples was 10 µL.
3. The reaction products were applied on 1% agarose gel and electrophoresis was performed in TAE buffer.

Assay [2] relates to synthetic DNA duplex (23 nt- 5'TCTTCAAGAATTCAGGTCCTGAT 3'). The assay can be described thus: Circular dichroism (CD) spectra of synthetic DNA duplex with test compounds. In kind it is binding. Particulars: immediately after addition; DNA duplex 2µM, compound 20µM, DMSO 0.2%, PBS, 23°C, 200-320 nm; Figure 1. Here is the method:
The ability of the test compounds 1a and 1b to interact with DNA was tested by the circular dichroism (CD) technique.
1. For this purpose, samples were prepared in PBS buffer containing: […] of synthetic DNA duplex (23 nt- 5'TCTTCAAGAATTCAGGTCCTGAT 3') or DNA of bovine thymus (0.2 mg/ml) and test compounds at a concentration of 20µM or 40µM for synthetic DNA duplex sample and thymus DNA sample, respectively. The samples contained 0.2% or 0.4% DMSO (for synthetic DNA duplex sample and thymus DNA sample, respectively), which is a solvent of the test compounds.
2. CD spectra (in the range from 200 nm to 320 nm) were recorded immediately after addition of the test compounds as well as after 1.5 h incubation. The measurement was carried out at 23°C in a quartz cuvette (optical path length 0.5 cm) using a spectroscope CD6 (Jobin-Yvon, France).
3. CD spectra of DNA incubated with the test compounds were compared with the control spectrum (spectrum was recorded for a sample of DNA (2µM or 0.2 mg/ml) in the presence of DMSO (final concentration of 0.2% or 0.4%).

For `COc1cccc2c1C(=O)c1c(O)c3c(c(O)c1C2=O)C[C@@](O)(C(C)=O)C[C@@H]3O[C@H]1C[C@H](N)[C@H](O)[C@H](C)O1` [Daunorubicin, reference compound], the “interaction with plasmid DNA: resistance to digestion by the endonucleolytic enzyme Bam H1” value (“interaction with plasmid DNA: resistance” for short) in assay [1] is reported as “increasing its resistance to digestion”. Besides, the “changes of CD spectrum of duplex DNA compared to control (duplex DNA + DMSO)” value (“changes of CD spectrum of duplex DNA” for short) in assay [2] was “changing significantly its structure”.

`O=C(/C(=C/c1ccc2ccc3cccc4ccc1c2c34)P(=O)(O)O)c1ccc2c(c1)OCO2` [compound 1b, (Z)-3-(benzo[d][1,3]dioxol-5-yl)-1-(pyrene-1-yl)-3-oxoprop-1-en-2-ylphosphonic acid]: the “interaction with plasmid DNA: resistance” value in assay [1] is on record as “increasing its resistance to digestion”. The “changes of CD spectrum of duplex DNA” value in assay [2] is listed as “changes compared to the control sample”.

Consider `COP(=O)(OC)/C(=C/c1ccc2ccc3cccc4ccc1c2c34)C(=O)c1ccc2c(c1)OCO2` [compound 1a], for which the “interaction with plasmid DNA: resistance” value in assay [1] is listed as “increasing its resistance to digestion”. In addition, the “changes of CD spectrum of duplex DNA” value in assay [2] is given as “changes compared to the control sample”.
